From US10738056B2 (Aduro BioTech, Inc., priority 2017, dated 2020) come the findings set out here.

The test system of assay [1] is cGAS/STING pathway in THP1 cells. Nature of the assay: THP1 cell-based cGAS/STING pathway activity assay (IRF-3-linked luciferase reporter). Particulars: Homo sapiens, THP-1. The essentials: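 THP1 cells carrying an IRF-3-driven luciferase reporter were read across a range of compound concentrations, and IC50 values were derived from these concentration responses; the assay upper limit was 100 μM.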

The target in assay [2] is Human cGAS amino acids 155-522 (Homo sapiens (Human), UniProt Q8N884). Nature of the assay: cGAS biochemical activity assay (ATP remaining, Kinase-Glo Max luminescence). Particulars: human cGAS 155-522, ATP remaining (Kinase-Glo Max); read-out: cGAS IC50. In general terms: In Kinase-Glo more light means more ATP remaining.
Sequence of Human cGAS amino acids 155-522 (Q8N884 157-522): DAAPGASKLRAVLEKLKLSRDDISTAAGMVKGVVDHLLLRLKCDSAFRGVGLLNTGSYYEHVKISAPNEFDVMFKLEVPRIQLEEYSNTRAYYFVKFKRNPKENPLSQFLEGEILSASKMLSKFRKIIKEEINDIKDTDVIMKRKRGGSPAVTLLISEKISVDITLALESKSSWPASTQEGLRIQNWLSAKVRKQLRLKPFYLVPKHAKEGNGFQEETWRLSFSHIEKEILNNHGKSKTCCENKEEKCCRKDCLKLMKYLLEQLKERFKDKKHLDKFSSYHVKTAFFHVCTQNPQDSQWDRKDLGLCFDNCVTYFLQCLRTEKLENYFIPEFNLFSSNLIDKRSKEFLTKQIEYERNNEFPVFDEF

As a reminder, the IC50 is the midpoint of a concentration-inhibition curve. Consider `Cc1[nH]c2c(-c3ccccc3)c(C#N)nn2c(=O)c1-c1nc2ccccc2o1` [Compound C1222, 6-(benzo[d]oxazol-2-yl)-5-methyl-7-oxo-3-phenyl-4,7-dihydropyrazolo[1,5-a]pyrimidine-2-carbonitrile], for which the values for the half-inhibitory concentration (IC50) in assay [1] and in assay [2] were 20 to 100 µM and less than 20 µM, respectively.
The matching figures for `Cc1[nH]c2c(-c3ccccc3)c(C(F)(F)F)nn2c(=O)c1-c1nc2c(=O)[nH]ccc2o1` [Compound C1116, 2-(5-methyl-7-oxo-3-phenyl-2-(trifluoromethyl)-4,7-dihydropyrazolo[1,5-a]pyrimidin-6-yl)oxazolo[4,5-c]pyridin-4(5H)-one]: more than 100 µM and less than 20 µM.
In the case of `COc1cccc(NC(=O)c2c(C)[nH]c3c(-c4ccccc4)c(C(F)(F)F)nn3c2=O)c1F` [Compound A1136, N-(2-fluoro-3-methoxyphenyl)-5-methyl-7-oxo-3-phenyl-2-(trifluoromethyl)-4,7-dihydropyrazolo[1,5-a]pyrimidine-6-carboxamide], the IC50 is 20 to 100 µM in assay [1] and less than 20 µM in assay [2].
The matching figures for `C#Cc1nn2c(=O)c(-c3nc4c(OC)cccc4o3)c(C)[nH]c2c1-c1ccccc1` [Compound C1211, 2-ethynyl-6-(4-methoxybenzo[d]oxazol-2-yl)-5-methyl-3-phenylpyrazolo[1,5-a]pyrimidin-7(4H)-one]: more than 100 µM and less than 20 µM.
For `Cc1[nH]c2c(-c3ccccc3)c(C(F)(F)F)nn2c(=O)c1C(=O)Nc1cccc(OC(C)C)c1` [Compound A1066, N-(3-isopropoxyphenyl)-5-methyl-7-oxo-3-phenyl-2-(trifluoromethyl)-4,7-dihydropyrazolo[1,5-a]pyrimidine-6-carboxamide], the IC50 in assay [1] and in assay [2] was less than 20 µM each time.
For `Cc1[nH]c2c(-c3ccccc3)c(C(F)(F)F)nn2c(=O)c1-c1nnc(C2(C)CCCC2)o1` [Compound D1023, 5-methyl-6-(5-(1-methylcyclopentyl)-1,3,4-oxadiazol-2-yl)-3-phenyl-2-(trifluoromethyl)pyrazolo[1,5-a]pyrimidin-7(4H)-one], the IC50 in assay [1] was more than 100 µM; in assay [2] it was less than 20 µM.
As to `Cc1[nH]c2c(-c3ccccc3)c(C(F)(F)F)nn2c(=O)c1-c1nnc(C2CCCCN2S(C)(=O)=O)o1` (stereo not shown) [Compound D1056, 5-methyl-6-(5-(1-(methylsulfonyl)piperidin-2-yl)-1,3,4-oxadiazol-2-yl)-3-phenyl-2-(trifluoromethyl)pyrazolo[1,5-a]pyrimidin-7(4H)-one], the IC50 in assay [1] was more than 100 µM; in assay [2] it was less than 20 µM.
`Cc1[nH]c2c(-c3ccccc3)c(C(F)(F)F)nn2c(=O)c1C(=O)Nc1ccccc1Cl` [Compound A1033, N-(2-chlorophenyl)-5-methyl-7-oxo-3-phenyl-2-(trifluoromethyl)-4,7-dihydropyrazolo[1,5-a]pyrimidine-6-carboxamide]: the IC50 in assay [1] lay within 20 to 100 µM; in assay [2], 20 to 250 µM.
Take `COc1cccc2nc(-c3c(C)[nH]c4c(-c5ccccc5)c(C(F)(F)F)nn4c3=O)oc12` [Compound C1022, 6-(7-methoxybenzo[d]oxazol-2-yl)-5-methyl-3-phenyl-2-(trifluoromethyl)pyrazolo[1,5-a]pyrimidin-7(4H)-one]: the IC50 is 20 to 100 µM in assay [1] and less than 20 µM in assay [2].
The matching figures for `COc1c(N)ccc2oc(-c3c(C)[nH]c4c(-c5ccccc5)c(C#N)nn4c3=O)nc12` [Compound C1250, 6-(5-amino-4-methoxybenzo[d]oxazol-2-yl)-5-methyl-7-oxo-3-phenyl-4,7-dihydropyrazolo[1,5-a]pyrimidine-2-carbonitrile]: more than 100 µM and less than 20 µM.
The matching figures for `Cc1[nH]c2c(-c3ccccc3)c(C(F)(F)F)nn2c(=O)c1-c1nnc(C2(N)CCCC2)o1` [Compound D1062, 6-(5-(1-aminocyclopentyl)-1,3,4-oxadiazol-2-yl)-5-methyl-3-phenyl-2-(trifluoromethyl)pyrazolo[1,5-a]pyrimidin-7(4H)-one]: more than 100 µM and less than 20 µM.
Take `COC1(c2nnc(-c3c(C)[nH]c4c(-c5ccccc5)c(C(F)(F)F)nn4c3=O)o2)CCCC1` [Compound D1055, 6-(5-(1-methoxycyclopentyl)-1,3,4-oxadiazol-2-yl)-5-methyl-3-phenyl-2-(trifluoromethyl)pyrazolo[1,5-a]pyrimidin-7(4H)-one]: the values for the half-inhibitory concentration (IC50) in assay [1] and in assay [2] were 20 to 100 µM and less than 20 µM, respectively.
The matching figures for `Cc1[nH]c2c(-c3ccccc3)c(C(F)(F)F)nn2c(=O)c1-c1nc2c(o1)CCCC2` [Compound C1015, 5-methyl-3-phenyl-6-(4,5,6,7-tetrahydrobenzo[d]oxazol-2-yl)-2-(trifluoromethyl)pyrazolo[1,5-a]pyrimidin-7(4H)-one]: less than 20 µM and more than 250 µM.
Take `COc1cccc2oc(-c3c(C(=O)O)[nH]c4c(-c5ccccc5)c(C#N)nn4c3=O)nc12` [Compound C1249, 2-cyano-6-(4-methoxybenzo[d]oxazol-2-yl)-7-oxo-3-phenyl-4,7-dihydropyrazolo[1,5-a]pyrimidine-5-carboxylic acid]: the IC50 in assay [1] is more than 100 µM; in assay [2], less than 20 µM.
`COC1CCCCC1NC(=O)c1c(C)[nH]c2c(-c3ccccc3)c(C(F)(F)F)nn2c1=O` (single isomer, unassigned) [Compound A1089, N-(2-methoxycyclohexyl)-5-methyl-7-oxo-3-phenyl-2-(trifluoromethyl)-4,7-dihydropyrazolo[1,5-a]pyrimidine-6-carboxamide]: the IC50 in assay [1] was more than 100 µM; in assay [2], less than 20 µM.
The matching figures for `Cc1[nH]c2c(-c3ccccc3)c(C(F)(F)F)nn2c(=O)c1C(=O)Nc1cccc2c1CCO2` [Compound A1102, N-(2,3-dihydrobenzofuran-4-yl)-5-methyl-7-oxo-3-phenyl-2-(trifluoromethyl)-4,7-dihydropyrazolo[1,5-a]pyrimidine-6-carboxamide]: more than 100 µM and less than 20 µM.
The matching figures for `Cc1[nH]c2c(-c3ccccc3)c(C(F)(F)F)nn2c(=O)c1-c1nnc(C2COCCN2)o1` (stereo not shown) [Compound D1042, 5-methyl-6-(5-(morpholin-3-yl)-1,3,4-oxadiazol-2-yl)-3-phenyl-2-(trifluoromethyl)pyrazolo[1,5-a]pyrimidin-7(4H)-one]: more than 100 µM and 20 to 250 µM.
The matching figures for `Cc1[nH]c2c(-c3ccccc3)c(C(F)(F)F)nn2c(=O)c1C(=O)NS(=O)(=O)c1ccccn1` [Compound A1120, 5-methyl-7-oxo-3-phenyl-N-(pyridin-2-ylsulfonyl)-2-(trifluoromethyl)-4,7-dihydropyrazolo[1,5-a]pyrimidine-6-carboxamide]: more than 100 µM and less than 20 µM.
`CC(=O)Nc1cccc2nc(-c3c(C)[nH]c4c(-c5ccccc5)c(C(F)(F)F)nn4c3=O)[nH]c12` [Compound C1009, N-(2-(5-methyl-7-oxo-3-phenyl-2-(trifluoromethyl)-4,7-dihydropyrazolo[1,5-a]pyrimidin-6-yl)-1H-benzo[d]imidazol-7-yl)acetamide]: the IC50 in assay [1] was 20 to 100 µM; in assay [2], less than 20 µM.
Take `COC1CCCN(c2nnc(-c3c(C)[nH]c4c(-c5ccccc5)c(C(F)(F)F)nn4c3=O)o2)C1` (stereo not shown) [Compound D1027, 6-(5-(3-methoxypiperidin-1-yl)-1,3,4-oxadiazol-2-yl)-5-methyl-3-phenyl-2-(trifluoromethyl)pyrazolo[1,5-a]pyrimidin-7(4H)-one]: the IC50 was more than 100 µM in assay [1] and less than 20 µM in assay [2].
The matching figures for `Cc1nnc(-c2c(C)[nH]c3c(-c4ccccc4)c(C(F)(F)F)nn3c2=O)[nH]1` [Compound C1020, 5-methyl-6-(5-methyl-4H-1,2,4-triazol-3-yl)-3-phenyl-2-(trifluoromethyl)pyrazolo[1,5-a]pyrimidin-7(4H)-one]: more than 100 µM and 20 to 250 µM.
On to `COc1cc(C(=N)N)cc2oc(-c3c(C)[nH]c4c(-c5ccccc5)c(C(F)(F)F)nn4c3=O)nc12` [Compound C1141, 4-methoxy-2-(5-methyl-7-oxo-3-phenyl-2-(trifluoromethyl)-4,7-dihydropyrazolo[1,5-a]pyrimidin-6-yl)benzo[d]oxazole-6-carboximidamide], for which the IC50 in assay [1] was more than 100 µM; in assay [2], less than 20 µM.
The matching figures for `Cc1[nH]c2c(-c3ccccc3)c(C#N)nn2c(=O)c1-c1nc2cc(N)ccc2o1` [Compound C1181, 6-(5-aminobenzo[d]oxazol-2-yl)-5-methyl-7-oxo-3-phenyl-4,7-dihydropyrazolo[1,5-a]pyrimidine-2-carbonitrile]: more than 100 µM and less than 20 µM.
The matching figures for `CC(=O)N1CCCCC1c1nnc(-c2c(C)[nH]c3c(-c4ccccc4)c(C(F)(F)F)nn3c2=O)o1` (stereo not shown) [Compound D1057, 6-(5-(1-acetylpiperidin-2-yl)-1,3,4-oxadiazol-2-yl)-5-methyl-3-phenyl-2-(trifluoromethyl)pyrazolo[1,5-a]pyrimidin-7(4H)-one]: 20 to 100 µM and less than 20 µM.
Turning to `Cc1[nH]c2c(-c3ccccc3)c(C(F)(F)F)nn2c(=O)c1C(=O)NS(=O)(=O)Cc1ccccc1` [Compound A1112, N-(benzylsulfonyl)-5-methyl-7-oxo-3-phenyl-2-(trifluoromethyl)-4,7-dihydropyrazolo[1,5-a]pyrimidine-6-carboxamide], the IC50 in assay [1] was 20 to 100 µM; in assay [2], less than 20 µM.
The matching figures for `COc1cncc2oc(-c3c(C)[nH]c4c(-c5ccccc5)c(C(F)(F)F)nn4c3=O)nc12` [Compound C1096, 6-(7-methoxyoxazolo[5,4-c]pyridin-2-yl)-5-methyl-3-phenyl-2-(trifluoromethyl)pyrazolo[1,5-a]pyrimidin-7(4H)-one]: more than 100 µM and less than 20 µM.
